Patent US7384656B2, “Anti-allergy composition and related method” (Access Business Group International LLC, priority 2004, dated 2008)

Tested on: IgE receptor (FcεRIα) on RBL-2H3 cells
Test: IgE receptor expression on RBL-2H3 cells (anti-FcεRIα cell ELISA normalized to MTT viability)
Type: cell-based
Conditions: 100 μg/ml
Protocol: The methodology used to obtain the results of FIG. 1 will now be described. First, RBL-2H3 cells, available from ATCC (American Type Culture Collection) of Manassas, Va., were plated in 96 well plates at 3×10^4/well. Following adherence to the wells, the cells were exposed to the sample combinations of ingredients listed in Table I, each combination referred to as a “sample.” Stock solutions of all samples were prepared in a solution of DMSO, ethanol, and water present in a ratio of 5:3:2 at 100 mg/ml. […] Duplicate plates of each sample were prepared so that viability could be determined multiple times for each sample, with the results of the multiple samples averaged following treatment of the cells. The plates were incubated an additional 48 hours. To measure IgE-receptor expression, the cells were fixed for 2 hours with 1% gluteraldehyde. Following fixation, the cells were washed twice with PBS-Tween 20 (0.01%), available from Aldrich of Milwaukee, Wis. Protein binding sites were blocked for 2 hours with 2% non-fat dry milk in PBS (Phosphate Buffer Saline buffered at pH 7.3). The cells were washed twice. The primary antibody, Rabbit anti-FcεRIα, available from Upstate Group, Inc., Lake Placid, N.Y., was added to the wells and diluted 1:4000 with 0.2% BSA (Bovine Serum Albumin). Following a 2 hour incubation, the wells were washed 5× with PBS-Tween 20 (0.01%) solutions. The secondary antibody, Goat anti-rabbit IgG-peroxidase, available from Sigma-Aldrich of St. Louis, Mo., was added to the wells at 1:20000 with 0.2% BSA. Following a 1 hour incubation the wells were washed five times. 100 μliters (microliters) of TMB (3,3′,5,5±Tetramethyl benzidine dihydrochloride) Substrate, available from Chemicon International of Temecula, Calif., was added to the wells. Subsequent color development was stopped by the addition of a sufficient amount, H2SO4 (for example, 100 μliters at 1 Normal). For each of the multiple samples of the combination, the OD450 (Optical Density measured at a wavelength of 450 nanometers) was read on a plate reader. Continuing with a description of the methodology to obtain the data in FIG. 1, the viability of the cells was next determined by incubating the cells in the second plate with MTT in a concentration of 1 mg/ml for 3 hours. The reduced MTT was extracted with 70% isopropanol and the OD540 (Optical Density at a wavelength of 540 nanometers) was read for each of the multiple samples.

O=c1cc(-c2ccc(O)c(O)c2)oc2cc(O)cc(O)c12 [Luteolin]
Percent Control, IgE Receptor Expression (IgE-R) (Table VIII): about 90% | effect on IgE receptor expression, in words (FIG. 7): significant effect | Percent Control IgE-Receptor (Table IV) (relative to untreated control cells): 82% | Percent Control, IgE Receptor Expression (IgE-R) (Table VIII) (listed as Luteolin from Perilla seed): 90.1%
